Normalised response and normalised viability data for two molecules are collected here from the supplement of paper PMC4862054.

“And” between values parts separate entries of the source, which are not always exact repeats. Identical values can stand only once.

Settings in all cases: incubation time: 72 h
Assay [1] concerns HCC1143. In words: normalised response (% of control), CellTiter-Glo; higher = more viable cells (100 = DMSO, 0 = benzethonium chloride kill control). A digest of the protocol: (§1)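 Values are normalised signals, each belonging to one concentration of the series. Breast cancer cells (20 µl suspension) were seeded into 384-well plates with compound at 5 concentrations in 10-fold steps over a compound-specific 10,000-fold range and incubated 72 h. Readouts were CellTox Green fluorescence (485/520 nm), then CellTiter-Glo luminescence after 10 min at room temperature, with each plate set to 0.1 % DMSO as 100 and a positive kill control as 0.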
In general terms: ATP-based viability assays read luminescence as a measure of living cells.

Assay [2] has as its system CAL-51. Described as above. A digest of the protocol: as §1
Assay [3] deals with SK-BR-3. The description is as above. Put shortly:
as §1

The test system of assay [4] is HDQ-P1. The description is as above. Put shortly: as §1
For assay [5], the system named is MDA-MB-453. The assay is described as above. A digest of the protocol: as §1
Assay [6] has as its system CAL-85-1. The assay is described as above. A digest of the protocol: as §1
For assay [7], the system named is MDA-MB-231. Described as above. Put shortly:
as §1

For assay [8], the system named is BT-549. Described as above. A digest of the protocol: as §1
The test system of assay [9] is CAL-148. Described as above. Put shortly: as §1
The subject of assay [10] is HCC1937. Described as above. A digest of the protocol: as §1
Assay [11] relates to Hs578T. The assay is described as above. A digest of the protocol:
as §1

The subject of assay [12] is MFM-223. The description is as above. Put shortly:
as §1

Assay [13] has as its system MDA-MB-436. Described as above. A digest of the protocol:
as §1

The subject of assay [14] is MDA-MB-468. The assay is described as above. A digest of the protocol:
as §1

The test system of assay [15] is HCC1599. The description is as above. Put shortly: as §1
The subject of assay [16] is CAL-120. The description is as above. A digest of the protocol:
as §1

A further assay deals with MCF-10A. Described as above. A digest of the protocol: as §1
In assay [17] the test system is BT-474. Described as above. Put shortly:
as §1

Assay [18] has as its system DU-4475. Described as above. Put shortly:
as §1

The subject of assay [19] is HCC1143. Kind of assay: normalised viability (% of control), CellTiter-Blue; higher = more viable cells (100 = DMSO, 0 = benzethonium chloride kill control). The protocol: (§2)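 DSRT, CellTiter-Blue viability, 72 h incubation. Signal is normalised to DMSO and benzethonium chloride controls. Value is the normalised response at dose 1.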
A general note: Resazurin is reduced to fluorescent resorufin, in cell work by metabolically active cells.

Assay [20] concerns CAL-51. Described as above. The protocol: as §2
Assay [21] deals with SK-BR-3. Described as above. The protocol:
as §2

Assay [22] relates to MDA-MB-453. The description is as above. The protocol:
as §2

Assay [23] relates to CAL-85-1. The assay is described as above. How it is done: as §2
The subject of assay [24] is MDA-MB-231. The assay is described as above. How it is done: as §2
The subject of assay [25] is BT-549. The assay is described as above. The protocol:
as §2

For assay [26], the system named is CAL-148. The assay is described as above. How it is done: as §2
For assay [27], the system named is HCC1937. The description is as above. How it is done: as §2
The subject of assay [28] is Hs578T. Described as above. How it is done:
as §2

Assay [29] relates to MFM-223. The assay is described as above. How it is done:
as §2

In assay [30] the test system is MDA-MB-436. The assay is described as above. How it is done: as §2
Assay [31] has as its system MDA-MB-468. The description is as above. How it is done:
as §2

The test system of assay [32] is HCC1599. The description is as above. How it is done: as §2
In assay [33] the test system is CAL-120. The assay is described as above. How it is done:
as §2

The test system of assay [34] is BT-474. The description is as above. How it is done: as §2
Assay [35] deals with DU-4475. Described as above. How it is done:
as §2

Assay [36] has as its system CAL-51. Kind of assay: normalised viability (% of control), CellTiter-Blue; higher = more viable cells (about 100 = DMSO control). The protocol: (§3)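 DSRT, CellTiter-Blue viability, 72 h incubation. Signal is normalised to DMSO and benzethonium chloride controls. Value is the normalised response at dose 9.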
Assay [37] has as its system HDQ-P1. The assay is described as above. How it is done:
as §3

The subject of assay [38] is MDA-MB-453. The description is as above. The protocol: as §3
Assay [39] deals with CAL-85-1. The assay is described as above. How it is done:
as §3

Assay [40] deals with CAL-148. The assay is described as above. The protocol:
as §3

Assay [41] concerns DU-4475. The description is as above. The protocol:
as §3

In the case of `CS(=O)(=O)CCNCc1ccc(-c2ccc3ncnc(Nc4ccc(OCc5cccc(F)c5)c(Cl)c4)c3c2)o1` [Lapatinib] (1 nM), the normalised response in the assay on HCC1143 [1] is 105%; in the assay on CAL-51 [2] it was 77.7%; in the assay on SK-BR-3 [3], 116%; in the assay on HDQ-P1 [4], 95.7%; with MDA-MB-453 [5] it was 108%; in the assay with CAL-85-1 [6], 93.4%. In addition, the normalised response in the assay with MDA-MB-231 [7] was determined as 99.5%; in the assay on BT-549 [8] it was 95.4%; in the assay on CAL-148 [9], 110%; with HCC1937 [10] it was 100%; in the assay with Hs578T [11] it was 104%; in the assay on MFM-223 [12] it was 107%. For the same molecule, the normalised response turned out to be 99.3% in the assay with MDA-MB-436 [13]; 106% with MDA-MB-468 [14]; 90.2% in the assay on HCC1599 [15]; 100% in the assay on CAL-120 [16]; 99.3% in the assay on MCF-10A; 105% in the assay on BT-474 [17]. Also, the normalised response with DU-4475 [18] turned out to be 107%. Further, the normalised viability was 87% and 88% in the assay with HCC1143 [19]; 116% and 104% in the assay on CAL-51 [20]; 92.7% and 105% with SK-BR-3 [21]; 99.8% and 92.5% with MDA-MB-453 [22]; 90.3% and 86.8% in the assay with CAL-85-1 [23]; 86.6% and 96.8% in the assay with MDA-MB-231 [24]. Besides, the normalised viability in the assay with BT-549 [25] was 88.8% and 94.3%; in the assay on CAL-148 [26], 97.7% and 107%; with HCC1937 [27], 99.3% and 105%; with Hs578T [28], 100% and 124%; in the assay on MFM-223 [29] it was 96.7% and 95.1%; in the assay with MDA-MB-436 [30], 104% and 115%. Further, the normalised viability in the assay with MDA-MB-468 [31] is 108% and 114%; in the assay with HCC1599 [32], 114% and 97.8%; in the assay with CAL-120 [33] it was 83.3% and 87.2%; with BT-474 [34] it was 85.4% and 94.8%; with DU-4475 [35], 96.4% and 93.1%.
`COC(=O)C[C@](O)(CCCC(C)(C)O)C(=O)O[C@@H]1C(OC)=C[C@]23CCCN2CCc2cc4c(cc2[C@H]13)OCO4` [Omacetaxine mepesuccinate] (10000 nM): the normalised viability in the assay on CAL-51 [36] came out at 3.97%; in the assay on HDQ-P1 [37], 15.2%; in the assay with MDA-MB-453 [38], 2.46%; in the assay on CAL-85-1 [39] it was 2.22%; with CAL-148 [40], 5.68%; with DU-4475 [41], 1.55%.
